Measurements reported in PubChem BioAssay (NCI).
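The compound was tested at five concentrations on cells cultured in 96-well plates, with a 48-hour exposure period. TGI: total growth inhibition.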

Tests used:
Assay in all cases: NCI-60 cell line screen, 48 h
[1] = test system: SNB-75 CNS
[2] = test system: ACHN renal
[3] = test system: M14 melanoma
[4] = test system: OVCAR-5 ovarian
[5] = test system: DU-145 prostate
[6] = test system: EKVX NSCLC
[7] = test system: MDA-MB-435
[8] = test system: OVCAR-4 ovarian
[9] = test system: SK-OV-3 ovarian
[10] = test system: HS 578T breast
[11] = test system: NCI-H226 lung
[12] = test system: NCI-H460 lung
[13] = test system: SK-MEL-2 melanoma
[14] = test system: RXF 393 renal
[15] = test system: OVCAR-8 ovarian
[16] = test system: UO-31 renal
[17] = test system: U251 CNS
[18] = test system: UACC-257 melanoma
[19] = test system: MDA-MB-231 breast
[20] = test system: MDA-N
[21] = test system: COLO 205 colon
[22] = test system: SK-MEL-28 melanoma
[23] = test system: 786-0 renal
[24] = test system: SF-295 CNS
[25] = test system: SF-539 CNS
[26] = test system: SW-620 colon
[27] = test system: SK-MEL-5 melanoma
[28] = test system: SN12C renal
[29] = test system: UACC-62 melanoma
[30] = test system: SNB-19 CNS
[31] = test system: MOLT-4 leukemia
[32] = test system: HOP-92 NSCLC
[33] = test system: A549 NSCLC
[34] = test system: OVCAR-3 ovarian
[35] = test system: HOP-62 NSCLC
[36] = test system: NCI-H23 lung
[37] = test system: MCF7 breast
[38] = test system: PC-3 prostate
[39] = test system: NCI/ADR-RES ovarian
[40] = test system: TK-10 renal
[41] = test system: SF-268 CNS
[42] = test system: KM12 colon
[43] = test system: BT-549 breast
[44] = test system: NCI-H522 lung
[45] = test system: HCC-2998 colon
[46] = test system: LOX IMVI melanoma
[47] = test system: HT29 colon
[48] = test system: CAKI-1 renal
[49] = test system: CCRF-CEM leukemia
[50] = test system: HL-60(TB) leukemia
[51] = test system: HCT-15 colon
[52] = test system: HCT-116 colon
[53] = test system: IGROV1 ovarian
[54] = test system: T-47D breast
[55] = test system: A498 renal
[56] = test system: SR leukemia
[57] = test system: MALME-3M melanoma
[58] = test system: RPMI-8226 leukemia
[59] = test system: K-562 leukemia

## CC1(C)CC(=O)C(/C=N/C(N)=S)=C(O)C1
[1]
  TGI: > 100 µM
[2]
  TGI: > 100 µM
[3]
  TGI: > 100 µM
[4]
  TGI: > 100 µM
[5]
  TGI: > 100 µM
[6]
  TGI: > 100 µM
[7]
  TGI: > 100 µM
[8]
  TGI: > 100 µM
[9]
  TGI: > 100 µM
[10]
  TGI: > 100 µM
[11]
  TGI: > 100 µM
[12]
  TGI: > 100 µM
[13]
  TGI: > 100 µM
[14]
  TGI: > 100 µM
[15]
  TGI: > 100 µM
[16]
  TGI: > 100 µM
[17]
  TGI: > 100 µM
[18]
  TGI: > 100 µM
[19]
  TGI: > 100 µM
[20]
  TGI: > 100 µM
[21]
  TGI: > 100 µM
[22]
  TGI: > 100 µM
[23]
  TGI: > 100 µM
[24]
  TGI: > 100 µM
[25]
  TGI: > 100 µM
[26]
  TGI: > 100 µM
[27]
  TGI: > 100 µM
[28]
  TGI: > 100 µM
[29]
  TGI: > 100 µM
[30]
  TGI: > 100 µM
[31]
  TGI: > 100 µM
[32]
  TGI: > 100 µM
[33]
  TGI: > 100 µM
[34]
  TGI: > 100 µM
[35]
  TGI: > 100 µM
[36]
  TGI: > 100 µM
[37]
  TGI: > 100 µM
[38]
  TGI: > 100 µM
[39]
  TGI: > 100 µM
[40]
  TGI: > 100 µM
[41]
  TGI: > 100 µM
[42]
  TGI: > 100 µM
[43]
  TGI: > 100 µM
[44]
  TGI: > 100 µM
[45]
  TGI: > 100 µM
[46]
  TGI: > 100 µM
[47]
  TGI: > 100 µM
[48]
  TGI: > 100 µM
[49]
  TGI: > 100 µM
[50]
  TGI: > 100 µM
[51]
  TGI: > 100 µM
[52]
  TGI: > 100 µM
[53]
  TGI: > 100 µM

## COC(=O)/C(=N\NC(N)=O)C(C(=O)C(=O)Nc1ccccc1OC)c1nc2ccc([N+](=O)[O-])cc2[nH]c1=O (configuration not stated)
[1]
  TGI: > 100 µM
[2]
  TGI: > 100 µM
[3]
  TGI: > 100 µM
[4]
  TGI: > 100 µM
[6]
  TGI: > 100 µM
[54]
  TGI: > 100 µM
[7]
  TGI: > 100 µM
[8]
  TGI: > 100 µM
[9]
  TGI: > 100 µM
[10]
  TGI: > 100 µM
[11]
  TGI: > 100 µM
[12]
  TGI: > 100 µM
[13]
  TGI: > 100 µM
[14]
  TGI: > 100 µM
[15]
  TGI: > 100 µM
[16]
  TGI: > 100 µM
[17]
  TGI: > 100 µM
[18]
  TGI: > 100 µM
[19]
  TGI: > 100 µM
[20]
  TGI: > 100 µM
[22]
  TGI: > 100 µM
[23]
  TGI: > 100 µM
[24]
  TGI: > 100 µM
[25]
  TGI: > 100 µM
[26]
  TGI: > 100 µM
[27]
  TGI: > 100 µM
[28]
  TGI: > 100 µM
[55]
  TGI: > 100 µM
[29]
  TGI: > 100 µM
[30]
  TGI: > 100 µM
[56]
  TGI: > 100 µM
[32]
  TGI: > 100 µM
[33]
  TGI: > 100 µM
[34]
  TGI: > 100 µM
[57]
  TGI: > 100 µM
[35]
  TGI: > 100 µM
[36]
  TGI: > 100 µM
[37]
  TGI: > 100 µM
[38]
  TGI: > 100 µM
[39]
  TGI: > 100 µM
[58]
  TGI: > 100 µM
[59]
  TGI: > 100 µM
[40]
  TGI: > 100 µM
[41]
  TGI: > 100 µM
[42]
  TGI: > 100 µM
[43]
  TGI: > 100 µM
[44]
  TGI: > 100 µM
[45]
  TGI: > 100 µM
[46]
  TGI: > 100 µM
[47]
  TGI: > 100 µM
[48]
  TGI: > 100 µM
[49]
  TGI: > 100 µM
[50]
  TGI: > 100 µM
[51]
  TGI: > 100 µM
[52]
  TGI: > 100 µM
[53]
  TGI: > 100 µM

## O=C(O)CSCc1cc2c(O)c(c1)Cc1cc(CSCC(=O)O)cc(c1O)Cc1cc(CSCC(=O)O)cc(c1O)Cc1cc(CSCC(=O)O)cc(c1O)C2
[2]
  TGI: > 100 µM
[3]
  TGI: > 100 µM
[4]
  TGI: > 100 µM
[5]
  TGI: > 100 µM
[6]
  TGI: > 100 µM
[54]
  TGI: > 100 µM
[7]
  TGI: > 100 µM
[8]
  TGI: > 100 µM
[9]
  TGI: > 100 µM
[10]
  TGI: > 100 µM
[11]
  TGI: > 100 µM
[12]
  TGI: > 100 µM
[13]
  TGI: > 100 µM
[14]
  TGI: > 100 µM
[15]
  TGI: > 100 µM
[16]
  TGI: > 100 µM
[17]
  TGI: > 100 µM
[18]
  TGI: > 100 µM
[20]
  TGI: > 100 µM
[21]
  TGI: > 100 µM
[22]
  TGI: > 100 µM
[23]
  TGI: > 100 µM
[24]
  TGI: > 100 µM
[25]
  TGI: > 100 µM
[26]
  TGI: > 100 µM
[28]
  TGI: > 100 µM
[55]
  TGI: > 100 µM
[30]
  TGI: > 100 µM
[31]
  TGI: > 100 µM
[56]
  TGI: > 100 µM
[32]
  TGI: > 100 µM
[33]
  TGI: > 100 µM
[34]
  TGI: > 100 µM
[57]
  TGI: > 100 µM
[35]
  TGI: > 100 µM
[36]
  TGI: > 100 µM
[37]
  TGI: > 100 µM
[38]
  TGI: > 100 µM
[39]
  TGI: > 100 µM
[58]
  TGI: > 100 µM
[59]
  TGI: > 100 µM
[40]
  TGI: > 100 µM
[41]
  TGI: > 100 µM
[42]
  TGI: > 100 µM
[43]
  TGI: > 100 µM
[44]
  TGI: > 100 µM
[45]
  TGI: > 100 µM
[46]
  TGI: > 100 µM
[47]
  TGI: > 100 µM
[48]
  TGI: > 100 µM
[49]
  TGI: > 100 µM
[50]
  TGI: > 100 µM
[51]
  TGI: > 100 µM
[52]
  TGI: > 100 µM
[53]
  TGI: > 100 µM

## N#Cc1cnc(-n2[nH]c3c(c2=O)CCCC3)[nH]c1=O
[1]
  TGI: 55.9 µM
[2]
  TGI: > 100 µM
[3]
  TGI: > 100 µM
[4]
  TGI: > 100 µM
[5]
  TGI: > 100 µM
[6]
  TGI: > 100 µM
[54]
  TGI: > 100 µM
[7]
  TGI: > 100 µM
[8]
  TGI: > 100 µM
[9]
  TGI: > 100 µM
[10]
  TGI: > 100 µM
[11]
  TGI: > 100 µM
[12]
  TGI: > 100 µM
[13]
  TGI: > 100 µM
[14]
  TGI: > 100 µM
[16]
  TGI: > 100 µM
[17]
  TGI: > 100 µM
[18]
  TGI: > 100 µM
[19]
  TGI: > 100 µM
[20]
  TGI: > 100 µM
[21]
  TGI: > 100 µM
[22]
  TGI: > 100 µM
[23]
  TGI: > 100 µM
[24]
  TGI: > 100 µM
[25]
  TGI: > 100 µM
[26]
  TGI: > 100 µM
[27]
  TGI: > 100 µM
[28]
  TGI: > 100 µM
[55]
  TGI: > 100 µM
[29]
  TGI: > 100 µM
[30]
  TGI: > 100 µM
[31]
  TGI: > 100 µM
[56]
  TGI: > 100 µM
[32]
  TGI: > 100 µM
[33]
  TGI: > 100 µM
[57]
  TGI: > 100 µM
[36]
  TGI: > 100 µM
[37]
  TGI: > 100 µM
[38]
  TGI: > 100 µM
[58]
  TGI: > 100 µM
[59]
  TGI: > 100 µM
[40]
  TGI: > 100 µM
[41]
  TGI: > 100 µM
[42]
  TGI: > 100 µM
[43]
  TGI: > 100 µM
[44]
  TGI: > 100 µM
[47]
  TGI: > 100 µM
[48]
  TGI: > 100 µM
[49]
  TGI: > 100 µM
[50]
  TGI: > 100 µM
[51]
  TGI: > 100 µM
[52]
  TGI: > 100 µM
[53]
  TGI: > 100 µM
